Measured values published in ChEMBL document CHEMBL6134844, “Development of Next-Generation Antimalarial Acridones with Radical Cure Potential” (J Med Chem, 2025).

How the values were obtained:
Plasmodium cynomolgi [1] = experiment: (§1) Antiplasmodial activity against schizont Plasmodium cynomolgi B strain infected in Macaca mulatta hepatocytes incubated with sporozoite containing salivary gland homogenate obtained from dissected Anopheles dirus mosquitoes (infected with Plasmodium cynomolgi B strain) treatment started on day 4 post infection and continued daily for 4 days into fresh changed media until day 8 assessed as Liver stage (LS) activity by measuring prophylactic mode by immunofluorescent staining analysis; type: functional, organism-based; details: Hepatocyte
Plasmodium cynomolgi [2] = experiment: as §1, with “radical cure” for “prophylactic”; type: functional, organism-based; details: Hepatocyte
Hepatocyte = experiment: Cytotoxicity against Macaca mulatta hepatocytes assessed as cell viability measured after 48 hrs by MTT assay; type: toxicity, cell-based; details: rhesus monkey, 48 h
Plasmodium cynomolgi [3] = experiment: as §1, with “hypnozoite” for “schizont”; type: functional, organism-based; details: Hepatocyte
Plasmodium falciparum [4] = experiment: Antiplasmodial activity against asexual blood-stage (ABS) ATV-resistant clinical isolate Plasmodium falciparum Tm90-C2B infected in human erythrocytes assessed as reduction in fluorescence measured after 72 hrs by Malaria SYBR Green I-based Fluorescence (MSF) assay; type: functional, organism-based; details: Erythrocyte
Plasmodium falciparum [5] = experiment: Antiplasmodial activity against asexual blood-stage (ABS) MDR Plasmodium falciparum Dd2 infected in human erythrocytes assessed as reduction in fluorescence measured after 72 hrs by Malaria SYBR Green I-based Fluorescence (MSF) assay; type: functional, organism-based; details: Dd2, Erythrocyte
[6] = Toxicity in CF1 mouse infected with asexual blood-stage (ABS) Plasmodium yoelii MRA-428 assessed as lethargy at 0.3 to 30 mg/kg, po treated 24 hrs post infection measured after 4 days; type: organism-based; details: in vivo, 96 h, dose 0.3-30 mg/kg, time 4 day
[7] = mouse, microsomes, 1 h
[8] = Toxicity in CF1 mouse infected with asexual blood-stage (ABS) Plasmodium yoelii MRA-428 assessed as ruffled hair at 0.3 to 30 mg/kg, po treated 24 hrs post infection measured after 4 days; type: organism-based; details: in vivo, 96 h, dose 0.3-30 mg/kg, time 4 day
[9] = Toxicity in CF1 mouse infected with asexual blood-stage (ABS) Plasmodium yoelii MRA-428 assessed as hyperactivity at 0.3 to 30 mg/kg, po treated 24 hrs post infection measured after 4 days; type: organism-based; details: in vivo, 96 h, dose 0.3-30 mg/kg, time 4 day
[10] = Toxicity in CF1 mouse infected with asexual blood-stage (ABS) Plasmodium yoelii MRA-428 assessed as hunching at 0.3 to 30 mg/kg, po treated 24 hrs post infection measured after 4 days; type: organism-based; details: in vivo, 96 h, dose 0.3-30 mg/kg, time 4 day
[11] = Toxicity in CF1 mouse infected with asexual blood-stage (ABS) Plasmodium yoelii MRA-428 assessed as weight loss at 0.3 to 30 mg/kg, po treated 24 hrs post infection measured after 4 days; type: organism-based; details: in vivo, 96 h, dose 0.3-30 mg/kg, time 4 day
Plasmodium cynomolgi [12] = experiment: as §1, with “hypnozoite” for “schizont”, “radical cure” for “prophylactic”; type: functional, organism-based; details: Hepatocyte
Plasmodium falciparum [13] = experiment: Antiplasmodial activity against asexual blood-stage (ABS) CQ-sensitive Plasmodium falciparum D6 infected in human erythrocytes assessed as reduction in fluorescence measured after 72 hrs by Malaria SYBR Green I-based Fluorescence (MSF) assay; type: functional, organism-based; details: D6, Erythrocyte
[14] = as §1, with “Selectivity index, ratio of CC50 for Macaca mulatta hepatocytes to IC50 for antiplasmodial” for “Antiplasmodial”; type: toxicity, cell-based; details: rhesus monkey, read-out: Selectivity Index
HepG2 = experiment: Cytotoxicity against human HepG2 cells assessed as cell viability measured after 48 hrs by MTT assay; type: functional, cell-based; details: HepG2, 48 h
[15] = as §1, with “Selectivity index, ratio of CC50 for Macaca mulatta hepatocytes to IC50 for antiplasmodial” for “Antiplasmodial”, “hypnozoite” for “schizont”; type: toxicity, cell-based; details: rhesus monkey, read-out: Selectivity Index
[16] = as §1, with “Selectivity index, ratio of CC50 for Macaca mulatta hepatocytes to IC50 for antiplasmodial” for “Antiplasmodial”, “radical cure” for “prophylactic”; type: toxicity, cell-based; details: rhesus monkey, read-out: Selectivity Index
[17] = as §1, with “Selectivity index, ratio of CC50 for Macaca mulatta hepatocytes to IC50 for antiplasmodial” for “Antiplasmodial”, “hypnozoite” for “schizont”, “radical cure” for “prophylactic”; type: toxicity, cell-based; details: rhesus monkey, read-out: Selectivity Index
[18] = human, microsomes, 1 h

Structure (SMILES)	IC50 (Plasmodium cynomolgi [1]) [µM]	IC50 (Plasmodium cynomolgi [2]) [µM]	CC50 (Hepatocyte) [µM]	IC50 (Plasmodium cynomolgi [3]) [µM]	IC50 (Plasmodium falciparum [4]) [µM]	IC50 (Plasmodium falciparum [5]) [µM]	Activity [6]	CLH [7] [µL/min/mg]	Activity [8]	Activity [9]	Activity [10]	Activity [11]	IC50 (Plasmodium cynomolgi [12]) [µM]	IC50 (Plasmodium falciparum [13]) [nM]	selectivity ratio at 96 h [14]	IC50 (HepG2) [µM]	selectivity ratio at 96 h [15]	selectivity ratio at 96 h [16]	selectivity ratio at 96 h [17]	t1/2 [18] [h]
CN(C)CCOc1ccc2c(=O)c3c([nH]c2c1)CCCC3	> 20	> 20	> 20	> 20	> 2.5	> 2.5	Non-toxic	> 500	Non-toxic	Non-toxic	Non-toxic	Non-toxic	> 20	> 2500						
O=c1c2c([nH]c3cc(OCc4ccc(OC(F)(F)F)cc4)ccc13)CCCC2	3.62	> 20	> 20	> 20	0.0435	0.0275	Non-toxic	31.9	Non-toxic	Non-toxic	Non-toxic	Non-toxic	> 20	6.02	> 5.52	> 200				
CCCN(CCC)CCNc1ccc2c(=O)c3c([nH]c2c1)CCCC3	> 20	> 20	> 20	> 20	> 2.5	> 2.5	Non-toxic	> 500	Non-toxic	Non-toxic	Non-toxic	Non-toxic	> 20	> 2500						
O=c1c2c([nH]c3cc(Nc4ccc(OC(F)(F)F)cc4)ccc13)CCCC2	0.21	1.4	1.81	1.09	0.00279	0.00185	Non-toxic	56	Non-toxic	Non-toxic	Non-toxic	Non-toxic	1.29	0.232	8.62	> 200	1.66	1.29	1.4	
O=c1c2c([nH]c3cc(Oc4ccccc4OC(F)(F)F)ccc13)CCCC2	0.64	> 20	> 20	7.72	0.000275	0.000171	Non-toxic	72.1	Non-toxic	Non-toxic	Non-toxic	Non-toxic	> 20	0.023	> 31.2	> 200	> 2.59			
O=c1c2c([nH]c3cccc(Oc4ccc(OC(F)(F)F)cc4)c13)CCCC2	3.34	2.92	6	7.62	> 2.5	> 2.5	Non-toxic	48	Non-toxic	Non-toxic	Non-toxic	Non-toxic	3.83	> 2500	1.79	> 200	0.787	2.05	1.57	
CCCN(CCC)CCOc1ccc2c(=O)c3c([nH]c2c1)CCCC3	9.83	> 20	> 20	> 20	0.0461	0.0643	Non-toxic	492	Non-toxic	Non-toxic	Non-toxic	Non-toxic	> 20	24.5	> 2.03	> 200				
CCCCN(CCCC)CCCOc1ccc2c(=O)c3c([nH]c2c1)CCCC3	4.92	> 20	> 20	> 20	0.0597	0.0394	Non-toxic	> 500	Non-toxic	Non-toxic	Non-toxic	Non-toxic	> 20	7.2	> 4.06	> 200				
CCN(CC)CCCOc1ccc2c(=O)c3c([nH]c2c1)CCCC3	11	> 20	> 20	> 20	> 2.5	> 2.5	Non-toxic	> 500	Non-toxic	Non-toxic	Non-toxic	Non-toxic	> 20	> 2500	> 1.82					> 1
CCCN(CCC)CCCOc1ccc2c(=O)c3c([nH]c2c1)CCCC3	5.33	14	> 20	> 20	0.162	0.126	Non-toxic	> 500	Non-toxic	Non-toxic	Non-toxic	Non-toxic	> 20	108	> 3.75	> 200		> 1.43		
O=c1c2c([nH]c3cc(OC(F)(F)F)ccc13)CCCC2	3.96	> 20	> 20	> 20	0.0586	0.0847	Non-toxic	21.3	Non-toxic	Non-toxic	Non-toxic	Non-toxic	> 20	52.4	> 5.05	> 200				
CCN(CC)CCOc1ccc2c(=O)c3c([nH]c2c1)CCCC3	14	> 20	> 20	> 20	> 2.5	> 2.5	Non-toxic	> 500	Non-toxic	Non-toxic	Non-toxic	Non-toxic	> 20	> 2500	> 1.43					> 1
O=c1c2c([nH]c3ccc(F)c(Oc4ccc(OC(F)(F)F)cc4)c13)CCCC2	7.4	> 20	> 20	7.32	> 2.5	> 2.5	Non-toxic	31.1	Non-toxic	Non-toxic	Non-toxic	Non-toxic	14	1360	> 2.7		> 2.73		> 1.43	
